# Reference: patent US11357752B2, “Carolacton and derivatives thereof for use in the treatment of cell proliferation disorders” (Helmholtz-Zentrum für Infektionsforschung GmbH, priority 2017, dated 2022)
# Columns and labels:
# hsMTHFD1 DC301 = target: T1, hsMTHFD1 DC301 (Homo sapiens, UniProt P11586); assay: FoID cyclohydrolase (CYH) enzyme assay; format: biochemical
# T1 construct: We therefore expressed and purified hsMTHFD2 and hsMTHFD1_DC to test them biochemically; His-tag (vector pHis-TEV); made in house; host or cells: E. coli BL21 (DE3)
# T1 sequence (P11586 2-291 limits assumed): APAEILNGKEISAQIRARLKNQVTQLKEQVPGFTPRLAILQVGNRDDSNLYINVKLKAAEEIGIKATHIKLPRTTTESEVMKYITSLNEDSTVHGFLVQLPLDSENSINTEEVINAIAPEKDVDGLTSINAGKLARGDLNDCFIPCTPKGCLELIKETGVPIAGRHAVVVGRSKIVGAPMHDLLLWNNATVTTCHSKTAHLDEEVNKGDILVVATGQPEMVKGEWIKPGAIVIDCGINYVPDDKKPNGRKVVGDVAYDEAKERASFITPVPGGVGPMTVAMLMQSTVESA
# Description: (§1) (6R,S)-5,10-Methylene-5,6,7,8-tetrahydrofolic acid ((6R,S)-5,10-CH2-THF), calcium salt and (6R,S)-5,10-Methenyl-5,6,7,8-tetrahydrofolic acid ((6R,S)-5,10-CH=THF) chloride were purchased from Schircks Laboratories (Bauma, Switzerland) and were used as substrates for FoID dehydrogenase and cyclohydrolase enzyme assays, respectively. Only the R-isomer, which accounts for 50% of (6R,S)-5,10-CH2-THF and (6R,S)-5,10-CH=THF, respectively, is used by the enzyme. (6R,S)-5,10-CH2-THF was dissolved in N2-spargeled basic buffer (50 mM Tris-HCl (pH 8.0), 100 mM β-mercaptoethanol) as described by Sah and Varshney, 2015a (6R,S)-5,10-CH=THF was first dissolved in DMSO as a 100 mM stock solution.
# (§2) Because FoID is a bifunctional enzyme, dehydrogenase and cyclohydrolase activities were determined for FoID enzyme kinetics, respectively. The dehydrogenase activity of FoID was assayed for its substrate 5,10-CH2-THF and cofactor NADP+ (in the case of MTHFD2, NAD+ was used as cofactor) based on monitoring the formation of 5,10-CH=THF while the cyclohydrolase activity of FoID was determined for its substrate 5,10-CH=THF by monitoring the hydrolysis of 5,10-CH2-THF. The enzyme kinetics for the dehydrogenase activity of all FoIDs except hsMTHFD1_DC were determined at 30° C. in 50 mM Tris-HCl (pH 7.5), 30 mM β-mercaptoethanol. The hsMTHFD1_DC dehydrogenase activity was measured in 25 mM MOPS (pH 7.3), 30 mM β-mercaptoethanol at 30° C. To measure the enzyme kinetics constants for 5,10-CH2-THF, for example in the case of ecFoID, the NADP concentration was fixed at 1 mM and the concentration of 5,10-CH2-THF varied from 5 μM to 1,500 μM (R-isomer). Similarly, to measure the kinetic constants of ecFoID for NADP+, the concentration of 5,10-CH2-THF (R-isomer) was fixed at 1 mM and the concentration of NADP+ varied from 10 μM to 1,500 μM. For different FoIDs, the varied concentration range of substrates could be different. […] To monitor the formation of 5,10-CH=THF, the absorbance of the reaction mixture was monitored at 350 nm in micro UV cuvettes (BRAND, Essex, Connecticut, USA). The concentration of 5,10-CH=THF produced in the reaction was determined using an extinction co-efficient of 0.0249 μM-1 cm-1. […] The consumption of 5,10-CH=THF was measured by recording the absorbance of the reactions at 355 nm using the TECAN Infinite 200 PRO equipped with a monochromator. […] The inhibition constants (Ki) of carolacton on FoID were determined by measuring the apparent Km values when adding certain amounts of carolacton to the enzyme reactions. […] To compare the inhibition effects of carolacton between the different FoIDs, the half maximal inhibitory concentration (IC50) of carolacton on the same amount of enzyme was determined for FoIDs involved in this study. […]
# hsMTHFD2 = target: T2, hsMTHFD2 (Homo sapiens, UniProt P13995); assay: FoID cyclohydrolase (CYH) enzyme assay; format: biochemical
# T2 construct: His-tag (vector pHis-TEV); made in house; host or cells: E. coli BL21 (DE3)
# T2 sequence (P13995 36-350): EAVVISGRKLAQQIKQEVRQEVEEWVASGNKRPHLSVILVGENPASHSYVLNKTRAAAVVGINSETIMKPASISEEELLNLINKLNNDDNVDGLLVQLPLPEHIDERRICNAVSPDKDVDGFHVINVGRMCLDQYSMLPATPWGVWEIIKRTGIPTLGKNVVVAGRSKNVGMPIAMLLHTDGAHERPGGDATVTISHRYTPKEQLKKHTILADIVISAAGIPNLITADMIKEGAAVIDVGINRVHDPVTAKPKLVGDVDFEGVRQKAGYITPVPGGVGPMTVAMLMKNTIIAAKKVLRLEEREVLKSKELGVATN
# Description: as §1, §2
# [1] = 5 nM enzyme, read-out: IC50, carolacton inhibition on CYH activity
# [2] = vs 5,10-CH=THF, read-out: Ki (5,10-CH═THF), carolacton inhibition on CYH activity
compound,measurement,setting,value
"CO[C@H](CC(=O)O)[C@@H](C)C(=O)[C@H](C)/C=C(\C)[C@H]1OC(=O)[C@H](O)[C@H](O)/C=C/[C@H](C)CCC[C@@H]1C [Carolacton, carolacton]",IC50,hsMTHFD1 DC301; [1],19.4 nM
same,Ki,hsMTHFD1 DC301; [2],20.6 nM
same,IC50,hsMTHFD2; [1],85.7 nM
same,Ki,hsMTHFD2; [2],12.7 nM
